Measured values taken from publication PMC8477192, “An ionic lock and a hydrophobic zipper mediate the coupling between an insect pheromone receptor BmOR3 and downstream effectors” (The Journal of Biological Chemistry, 2021).

Assays:
BmOR3 [1] = molecular target: T1, BmOR3 (Bombyx mori, UniProt Q5FBE0); test: G protein dissociation BRET assay (TRUPATH probes); format: cell-based
Experimental: The Gi, Gq, Go, Gs, and Gz dissociation BRET probes were from the TRUPATH kit, which was a gift from Bryan Roth (Addgene kit #1000000163 ([31])). HEK293 cells were cotransfected with BmOR3 along with specific G protein BRET probes. After 24 h, the cells were reseeded in 96-well microplates and incubated for another 24 h. The cells were washed twice with Hank's balanced salt solution and stimulated with bombykal at different concentrations for 2 min. The light emission of Rluc8 (400 nm) and GFP10 (510 nm) was measured after the addition of the substrate coelenterazine 400a (5 μM) using a Mithras LB 940 multimode reader (Berthold Technologies). The BRET signal was calculated as the ratio of light emission at 510/400 nm.

BmOR3–BmOrco = molecular target: T2, BmOR3–BmOrco (Bombyx mori, UniProt Q5FBE0); test: BmOR3–BmOrco intermolecular BRET assay; format: cell-based; conditions: HEK293 cells; 5 min stimulation; read-out: EC50 of BRET signal increase between Rluc-BmOR3 and YFP-BmOrco
T2 sequence (Q5FBE0 1-439): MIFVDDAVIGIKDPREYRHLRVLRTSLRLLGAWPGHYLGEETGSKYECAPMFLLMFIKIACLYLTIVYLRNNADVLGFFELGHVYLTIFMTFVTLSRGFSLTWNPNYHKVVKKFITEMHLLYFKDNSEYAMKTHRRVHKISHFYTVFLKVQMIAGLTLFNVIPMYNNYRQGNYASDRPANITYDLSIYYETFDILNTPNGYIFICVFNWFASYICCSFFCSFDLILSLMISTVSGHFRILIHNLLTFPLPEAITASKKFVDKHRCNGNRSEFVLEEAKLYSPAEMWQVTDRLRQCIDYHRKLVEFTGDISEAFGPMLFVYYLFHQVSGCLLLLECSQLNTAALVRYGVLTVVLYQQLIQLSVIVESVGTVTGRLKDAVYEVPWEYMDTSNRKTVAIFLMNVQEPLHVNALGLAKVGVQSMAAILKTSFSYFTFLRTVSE
T2 sequence (Q7YT34 1-472 partner): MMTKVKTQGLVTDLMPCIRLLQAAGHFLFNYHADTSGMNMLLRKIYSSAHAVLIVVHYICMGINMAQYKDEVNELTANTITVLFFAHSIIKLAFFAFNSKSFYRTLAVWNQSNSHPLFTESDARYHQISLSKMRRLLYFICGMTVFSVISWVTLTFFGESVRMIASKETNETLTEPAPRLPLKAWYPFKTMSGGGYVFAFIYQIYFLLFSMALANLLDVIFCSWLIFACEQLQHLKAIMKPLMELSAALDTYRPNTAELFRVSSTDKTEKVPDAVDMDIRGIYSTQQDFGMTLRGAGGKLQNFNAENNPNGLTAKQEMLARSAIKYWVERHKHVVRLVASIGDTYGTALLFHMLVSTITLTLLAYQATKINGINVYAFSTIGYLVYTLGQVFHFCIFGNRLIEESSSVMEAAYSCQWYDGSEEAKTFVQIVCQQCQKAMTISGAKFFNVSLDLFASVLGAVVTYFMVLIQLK
Experimental: HEK293 cells were cotransfected with the N-terminal Rluc-tagged WT BmOR3 together with N-terminal YFP-fused BmOrco plasmids or their mutants. Twenty-four hours after transfection, cells were distributed into a 96-well microplate. After another 24 h, the cells were stimulated with different concentrations of bombykal for 5 min. BRET between RLuc and YFP was measured using a Mithras LB 940 multimode reader after the addition of the RLuc substrate coelenterazine h (5 μM). The BRET signal was calculated as the ratio of emission of YFP (530 nm) to RLuc (485 nm). For the saturation BRET between Rluc-BmOrco and YFP-BmOR3, HEK293 cells were transfected with a fixed amount of Rluc-BmOrco and increasing amounts of YFP-BmOR3. The BRET signal between RLuc and YFP was directly measured after the addition of the substrate coelenterazine h (5 μM).

BmOR3 and BmOrco = test: CalfluxVTN Ca2+ assay (BRET-based calcium sensor); format: cell-based, Bombyx mori
Experimental: HEK293 cells were cotransfected with plasmids encoding WT BmOR3 and BmOrco or their mutants, or AT1R together with CalfluxVTN probe. 24 h after transfection, cells were redistributed into 96-well flat-bottomed microplates. After another 24 h, cells were incubated with conventional buffer with Ca^2+ (135 mM NaCl, 5 mM KCl, 1 mM CaCl2, 5 mM D-glucose, 10 mM Hepes; pH = 7.4) or with Ca^2+-free buffer (135 mM NaCl, 5 mM KCl, 1 mM EGTA, 5 mM D-glucose, 10 mM Hepes; pH = 7.4), and stimulated with different concentrations of Bombykal (or AngII). The BRET ratio between Venus and Nluc was measured before (baseline) and after the addition of the Nluc substrate furimazine (5 μM) using a Mithras LB 940 multimode reader (Berthold Technologies). The BRET signal was calculated as ratio of emission of Venus (530 nm) to Nluc (460 nm). The baseline value was subtracted from the bombykal-stimulated BRET signal to obtain the ΔBRET value.

BmOR3 [2] = molecular target: T1, BmOR3; test: Arrestin-kinase BRET assay; format: cell-based; conditions: HEK293 cells transfected with BmOR3, BmArr-Rluc and YFP-tagged kinases; 1 μM, 10 min
Experimental: Twenty-four hours after transfection, cells were distributed into a 96-well microplate. After another 24 h, the cells were stimulated with 1 μM bombykal (for BmOR3-transfected cells) or 1 μM AngII for 10 min (for AT1R-transfected cells). BRET between RLuc and YFP was measured using a Mithras LB 940 multimode reader after the addition of the RLuc substrate coelenterazine h (5 μM). The BRET signal was calculated as the ratio of emission of YFP (530 nm) to RLuc (485 nm).

## CCC/C=C\C=C\CCCCCCCCC=O [bombykal]
BmOR3 [1]; HEK293 cells transfected with BmOR3, Go probes
  Go activation: did not induce
BmOR3 [1]; HEK293 cells transfected with BmOR3, Gq probes
  Gq activation: did not induce
BmOR3 [1]; HEK293 cells transfected with BmOR3, Gs probes
  Gs activation: did not induce
BmOR3 [1]; HEK293 cells transfected with BmOR3, Gz probes
  Gz activation: did not induce
BmOR3 [1]; HEK293 cells, Gi BRET probes, 2 min stimulation, read-out: EC50 of Gi activation through BmOR3 (decrease of the BRET signal)
  EC50: 16.4 ± 5.04 nM
BmOR3–BmOrco
  EC50: 36 ± 3.89 nM
BmOR3 and BmOrco; 1 μM, Ca2+-free buffer versus Ca-containing buffer
  Ca2+ signal through BmOR3–BmOrco in the Ca2+-free incubating buffer: completely abolished
BmOR3 and BmOrco; 1 μM, CalfluxVTN-expressing HEK293 cells, receptors expressed at similar levels
  Ca2+ response through BmOR3/BmOrco relative to that induced by angiotensin II through activating AT1R: approximately 70%
BmOR3 and BmOrco; HEK293 cells coexpressing BmOR3 and BmOrco, not with BmOR3 or BmOrco alone
  calcium influx in response to stimulation: elicited robust calcium influx
BmOR3 [2]
  association of β-arrestin with ERK, SRC, and AKT: increased association
